Test results as given in patent US20230085307A1, “PYRIDAZINONE COMPOUND AND HERBICIDE” (NISSAN CHEMICAL CORPORATION, priority 2019, published 2023).

Experiments:
blackgrass [1] = test: Test Example 4: herbicidal effect by soil treatment (Table 19, symbol J); type: in vivo, blackgrass (Alopecurus myosuroides); settings: amount of applied herbicide 320 g/ha
How it was run: (§1)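 Step 1: sow seeds in sterilized diluvial soil, cover ~1.5 cm. Step 2: spray diluted emulsion onto soil surface at predetermined rate. Step 3: greenhouse, 25–30° C, three weeks. Step 4: grade effect on each plant by earlier criteria.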

persian speedwell [2] = test: Test Example 5: herbicidal effect by foliage application, plastic box (Table 20, symbol R); type: in vivo, Persian speedwell (Veronica persica); settings: foliage application, 320 g/ha, three weeks after application
How it was run: (§2)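 Foliar spray test: emulsion formulation diluted in water to a set application rate, sprayed onto 14-day-old plants raised in diluvial soil at 25° C to 30° C under glass. Both herbicidal effect and crop effect rated visually three weeks later.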

southern crabgrass [3] = test: Test Example 4: herbicidal effect by soil treatment (Table 19, symbol F); type: in vivo, southern crabgrass (Digitaria ciliaris); settings: amount of applied herbicide 320 g/ha
How it was run: as §1

barnyard grass [4] = test: Test Example 5: herbicidal effect by foliage application, plastic box (Table 20, symbol H); type: in vivo, barnyard grass (Echinochloa crus-galli); settings: foliage application, 320 g/ha, three weeks after application
How it was run: as §2

blackgrass [5] = test: Test Example 5: herbicidal effect by foliage application, plastic box (Table 20, symbol J); type: in vivo, blackgrass (Alopecurus myosuroides); settings: foliage application, 320 g/ha, three weeks after application
How it was run: as §2

false cleavers [6] = test: Test Example 5: herbicidal effect by foliage application, plastic box (Table 20, symbol Q); type: in vivo, false cleavers (Galium spurium); settings: foliage application, 320 g/ha, three weeks after application
How it was run: as §2

green foxtail [7] = test: Test Example 5: herbicidal effect by foliage application, plastic box (Table 20, symbol G); type: in vivo, green foxtail (Setaria viridis); settings: foliage application, 320 g/ha, three weeks after application
How it was run: as §2

Chinese sprangletop = test: Test Example 3: herbicidal effect by foliage application, Wagner pot (Table 18, symbol D); type: in vivo, chinese sprangletop (Leptochloa chinensis); settings: 320 g/ha
How it was run: (§3)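 Plants were sown in alluvial soil held under 0.1–0.5 cm standing water and grown 14 days in a greenhouse at 25–30 °C. An emulsifiable formulation, water-diluted to the set dose, was then sprayed onto the foliage, and effects were scored three weeks later using previously defined criteria.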

green foxtail [8] = test: Test Example 4: herbicidal effect by soil treatment (Table 19, symbol G); type: in vivo, green foxtail (Setaria viridis); settings: amount of applied herbicide 320 g/ha
How it was run: as §1

Italian ryegrass [9] = test: Test Example 4: herbicidal effect by soil treatment (Table 19, symbol K); type: in vivo, Italian ryegrass (Lolium multiflorum); settings: amount of applied herbicide 320 g/ha
How it was run: as §1

lambsquarters [10] = test: Test Example 4: herbicidal effect by soil treatment (Table 19, symbol O); type: in vivo, lambsquarters (Chenopodium album); settings: amount of applied herbicide 320 g/ha
How it was run: as §1

wild oat [11] = test: Test Example 5: herbicidal effect by foliage application, plastic box (Table 20, symbol I); type: in vivo, wild oat (Avena fatua); settings: foliage application, 320 g/ha, three weeks after application
How it was run: as §2

chickweed [12] = test: Test Example 5: herbicidal effect by foliage application, plastic box (Table 20, symbol P); type: in vivo, common chickweed (Stellaria media); settings: foliage application, 320 g/ha, three weeks after application
How it was run: as §2

barnyard grass [13] = test: Test Example 4: herbicidal effect by soil treatment (Table 19, symbol H); type: in vivo, barnyard grass (Echinochloa crus-galli); settings: amount of applied herbicide 320 g/ha
How it was run: as §1

chickweed [14] = test: Test Example 4: herbicidal effect by soil treatment (Table 19, symbol P); type: in vivo, common chickweed (Stellaria media); settings: amount of applied herbicide 320 g/ha
How it was run: as §1

redroot pigweed [15] = test: Test Example 5: herbicidal effect by foliage application, plastic box (Table 20, symbol N); type: in vivo, redroot pigweed (Amaranthus retroflexus); settings: foliage application, 320 g/ha, three weeks after application
How it was run: as §2

false cleavers [16] = test: Test Example 4: herbicidal effect by soil treatment (Table 19, symbol Q); type: in vivo, false cleavers (Galium spurium); settings: amount of applied herbicide 320 g/ha
How it was run: as §1

rice flat sedge = test: Test Example 3: herbicidal effect by foliage application, Wagner pot (Table 18, symbol E); type: in vivo, rice flat sedge (Cyperus iria); settings: 320 g/ha
How it was run: as §3

Italian ryegrass [17] = test: Test Example 5: herbicidal effect by foliage application, plastic box (Table 20, symbol K); type: in vivo, Italian ryegrass (Lolium multiflorum); settings: foliage application, 320 g/ha, three weeks after application
How it was run: as §2

persian speedwell [18] = test: Test Example 4: herbicidal effect by soil treatment (Table 19, symbol R); type: in vivo, Persian speedwell (Veronica persica); settings: amount of applied herbicide 320 g/ha
How it was run: as §1

velvetleaf [19] = test: Test Example 4: herbicidal effect by soil treatment (Table 19, symbol M); type: in vivo, velvetleaf (Abutilon theophrasti); settings: amount of applied herbicide 320 g/ha
How it was run: as §1

velvetleaf [20] = test: Test Example 5: herbicidal effect by foliage application, plastic box (Table 20, symbol M); type: in vivo, velvetleaf (Abutilon theophrasti); settings: foliage application, 320 g/ha, three weeks after application
How it was run: as §2

lambsquarters [21] = test: Test Example 5: herbicidal effect by foliage application, plastic box (Table 20, symbol O); type: in vivo, lambsquarters (Chenopodium album); settings: foliage application, 320 g/ha, three weeks after application
How it was run: as §2

windgrass = test: Test Example 5: herbicidal effect by foliage application, plastic box (Table 20, symbol L); type: in vivo, windgrass (Apera spica-venti); settings: foliage application, 320 g/ha, three weeks after application
How it was run: as §2

redroot pigweed [22] = test: Test Example 4: herbicidal effect by soil treatment (Table 19, symbol N); type: in vivo, redroot pigweed (Amaranthus retroflexus); settings: amount of applied herbicide 320 g/ha
How it was run: as §1

barnyard grass [23] = test: Test Example 3: herbicidal effect by foliage application, Wagner pot (Table 18, symbol H); type: in vivo, barnyard grass (Echinochloa crus-galli); settings: 320 g/ha
How it was run: as §3

southern crabgrass [24] = test: Test Example 5: herbicidal effect by foliage application, plastic box (Table 20, symbol F); type: in vivo, southern crabgrass (Digitaria ciliaris); settings: foliage application, 320 g/ha, three weeks after application
How it was run: as §2

wild oat [25] = test: Test Example 4: herbicidal effect by soil treatment (Table 19, symbol I); type: in vivo, wild oat (Avena fatua); settings: amount of applied herbicide 320 g/ha
How it was run: as §1

## Cc1nn(C)c(=O)c(-c2c(-c3ccccc3C(F)(F)F)sc3ccccc23)c1O [1-007]
Blackgrass [1]
  herbicidal effect rating, J: blackgrass: 0 (Herbicidal rate of 5% or less (almost no effect))
Persian speedwell [2]
  herbicidal effect grade, R: persian speedwell: 5 (Herbicidal rate of 90% or more (almost completely withered))
Southern crabgrass [3]
  herbicidal effect rating, F: southern crabgrass: 0 (Herbicidal rate of 5% or less (almost no effect))
Barnyard grass [4]
  herbicidal effect grade, H: barnyard grass: 3 (Herbicidal rate of 40% or more and less than 70%)
Blackgrass [5]
  herbicidal effect grade, J: blackgrass: 0 (Herbicidal rate of 5% or less (almost no effect))
False cleavers [6]
  herbicidal effect grade, Q: false cleavers: 5 (Herbicidal rate of 90% or more (almost completely withered))
Green foxtail [7]
  herbicidal effect grade, G: green foxtail: 5 (Herbicidal rate of 90% or more (almost completely withered))
Chinese sprangletop
  herbicidal effect on D (Chinese sprangletop), rating 0-5: 5 (Herbicidal rate of 90% or more (almost completely withered))
Green foxtail [8]
  herbicidal effect rating, G: green foxtail: 0 (Herbicidal rate of 5% or less (almost no effect))
Italian ryegrass [9]
  herbicidal effect rating, K: Italian ryegrass: 0 (Herbicidal rate of 5% or less (almost no effect))
Lambsquarters [10]
  herbicidal effect rating, O: lambsquarters: 0 (Herbicidal rate of 5% or less (almost no effect))
Wild oat [11]
  herbicidal effect grade, I: wild oat: 3 (Herbicidal rate of 40% or more and less than 70%)
Chickweed [12]
  herbicidal effect grade, P: chickweed: 5 (Herbicidal rate of 90% or more (almost completely withered))
Barnyard grass [13]
  herbicidal effect rating, H: barnyard grass: 0 (Herbicidal rate of 5% or less (almost no effect))
Chickweed [14]
  herbicidal effect rating, P: chickweed: 3 (Herbicidal rate of 40% or more and less than 70%)
Redroot pigweed [15]
  herbicidal effect grade, N: redroot pigweed: 5 (Herbicidal rate of 90% or more (almost completely withered))
False cleavers [16]
  herbicidal effect rating, Q: false cleavers: 0 (Herbicidal rate of 5% or less (almost no effect))
Rice flat sedge
  herbicidal effect on E (rice flat sedge), rating 0-5: 4 (Herbicidal rate of 70% or more and less than 90%)
Italian ryegrass [17]
  herbicidal effect grade, K: Italian ryegrass: 3 (Herbicidal rate of 40% or more and less than 70%)
Persian speedwell [18]
  herbicidal effect rating, R: persian speedwell: 0 (Herbicidal rate of 5% or less (almost no effect))
Velvetleaf [19]
  herbicidal effect rating, M: velvetleaf: 0 (Herbicidal rate of 5% or less (almost no effect))
Velvetleaf [20]
  herbicidal effect grade, M: velvetleaf: 5 (Herbicidal rate of 90% or more (almost completely withered))
Lambsquarters [21]
  herbicidal effect grade, O: lambsquarters: 5 (Herbicidal rate of 90% or more (almost completely withered))
windgrass
  herbicidal effect grade, L: windgrass: 5 (Herbicidal rate of 90% or more (almost completely withered))
Redroot pigweed [22]
  herbicidal effect rating, N: redroot pigweed: 0 (Herbicidal rate of 5% or less (almost no effect))
Barnyard grass [23]
  herbicidal effect on H (barnyard grass), rating 0-5: 5 (Herbicidal rate of 90% or more (almost completely withered))
Southern crabgrass [24]
  herbicidal effect grade, F: southern crabgrass: 3 (Herbicidal rate of 40% or more and less than 70%)
Wild oat [25]
  herbicidal effect rating, I: wild oat: 3 (Herbicidal rate of 40% or more and less than 70%)
